Measurements published in article PMC7778589, “Photosensitizer-based multimodal PSMA-targeting ligands for intraoperative detection of prostate cancer” (Theranostics, 2021).

How the values were obtained:
[1] = target: T1, PSMA-expressing LS174T cells (LS174T-PSMA) (Homo sapiens, UniProt Q04609); experiment: Binding and internalization assay with 111In-labeled ligands; type: cell-based; settings: 2 h 37 °C
T1 construct: expressed in transfected cells; host or cells: LS174T colon carcinoma cells (human), stably transfected with pcDNA3.1-hPSMA
Method: Cell lines were purchased from the American Type Culture Collection. LS174T colon carcinoma cells were stably transfected with human PSMA using the plasmid pcDNA3.1-hPSMA and cultured in RPMI 1640 medium supplemented with 2 mM glutamine, 10% FCS, and 0.3 mg/ml G418 at 37 °C in a humidified atmosphere with 5% CO2 [5].
Binding and internalization characteristics of all ligands were compared using LS174T-PSMA and wildtype LS174T cells. Cells were cultured to confluency in 6-wells plates followed by incubation at 37 °C for 2 h in 1 ml binding buffer (RPMI/0.5% BSA) with 50,000 counts per minute (cpm) of ^111In-labeled ligand (0.1-0.25 pmol/well). Nonspecific binding was determined by coincubation with 2-(phosphonomethyl)pentane-1,5-dioic acid (2-PMPA, 21.57 µM). PSMA-specific binding was defined as nonspecific binding subtracted from total binding. To retrieve the membrane-bound fraction, cells were washed with PBS twice and incubated with acid buffer (0.1 M acetic acid, 154 mM NaCl, pH 2.6) for 10 minutes at 0 °C. After incubation, the membrane bound fraction (in acid buffer) was collected, cells were washed, lysed with 0.1 M NaOH and cell lysis (intercellular activity) was collected. Membrane-bound activity and intercellular activity fractions were measured in a gamma-counter (2480 WIZARD^2 Automatic Gamma Counter, PerkinElmer), [25]. Human serum was used to determine the in vitro serum stability of the multimodal ligands (0.8 µg/ml serum, 5 MBq/μg labeling). After incubation for 2 h at 37°C, serum proteins were precipitated by adding a 1:1 (v/v) volume of acetonitrile followed by 5 min of centrifugation at 3220×g. Stability was evaluated by RP-HPLC analysis after 2 h of incubation at 37 °C. […] Experimental details are described in the supplementary materials and methods.

[2] = system: LS174T-PSMA and LS174T xenografts; experiment: Biodistribution of 111In-labeled multimodal ligands; type: in vivo, BALB/c nude mice; settings: 0.3 nmol, 2 h p.i.
Method: Animal experiments were performed in 8-10 weeks old male BALB/c nude mice (Janvier). Animals were housed in individually ventilated cages (Blue line IVC, 4-5 mice per cage) under nonsterile standard conditions with cage enrichment present and free access to chlorophyll-free animal chow (Sniff GmbH) and water. Mice were subcutaneously inoculated with 3.0 x 10^6 LS174T-PSMA cells in the left flank and 1.5 × 10^6 LS174T cells in the right flank, diluted in 200 μL of complete RPMI 1640 medium. Eleven days after tumor cell inoculation when xenografts were approximately 0.1 cm^3, tracers were injected intravenously via the tail vein. The researchers were not blinded for the experimental groups and tumor-bearing mice were block-randomized into groups based on tumor size. All experiments were approved by the institutional Animal Welfare Committee of the Radboud university medical center and were conducted in accordance to the guidelines of the Revised Dutch Act on Animal Experimentation.
Mice were injected intravenously with 10 MBq ^111In-labeled PSMA ligands (0.3 nmol, molar activity 33.3 MBq/nmol) in PBS/0.5% BSA. Two hours post injection, mice were euthanized by CO2/O2-asphyxation and images were acquired with the IVIS fluorescence imaging system (Xenogen VivoVision IVIS Lumina II, Caliper Life Sciences), using an acquisition time of 10 s. Subsequently, µSPECT/CT images were acquired (U-SPECT II, MILabs) with a 1.0 mm diameter pinhole mouse collimator tube [26]. Mice were scanned for 30 min followed by a CT scan (spatial resolution 160 μm, 65 kV, 615 μA) for anatomical reference. µSPECT/CT scans were reconstructed with MILabs reconstruction software, using an ordered-subset expectation maximization algorithm, energy windows 154 - 188 keV and 220-270 keV, 3 iterations, 16 subsets, voxel size of 0.4 mm. SPECT/CT scans were analyzed and maximum intensity projections (MIPs) were created using the Inveon Research Workplace software version 4.1 (Siemens Preclinical Solutions). NIRF images were analyzed using Living Image software version 4.2 (Caliper Life Sciences). Tissues of interest were dissected, weighed and measured for radioactivity in a gamma-counter as described above. In the fluorescence-guided surgery feasibility study, pre-operative imaging was performed to visualize tumor tissue. After white light resection, NIRF imaging was repeated to assess if any remaining tumor was present.

[3] = Lipophilicity, PBS/n-octanol; type: physicochemical; settings: radiolabeled ligand
Method: Tubes were vortexed vigorously for 1 min and centrifuged for 5 min at 201×g for phase separation. The concentration of radioactivity in a defined volume of each layer was measured in a well-type gamma-counter.

T1 sequence (Q04609 whole entry): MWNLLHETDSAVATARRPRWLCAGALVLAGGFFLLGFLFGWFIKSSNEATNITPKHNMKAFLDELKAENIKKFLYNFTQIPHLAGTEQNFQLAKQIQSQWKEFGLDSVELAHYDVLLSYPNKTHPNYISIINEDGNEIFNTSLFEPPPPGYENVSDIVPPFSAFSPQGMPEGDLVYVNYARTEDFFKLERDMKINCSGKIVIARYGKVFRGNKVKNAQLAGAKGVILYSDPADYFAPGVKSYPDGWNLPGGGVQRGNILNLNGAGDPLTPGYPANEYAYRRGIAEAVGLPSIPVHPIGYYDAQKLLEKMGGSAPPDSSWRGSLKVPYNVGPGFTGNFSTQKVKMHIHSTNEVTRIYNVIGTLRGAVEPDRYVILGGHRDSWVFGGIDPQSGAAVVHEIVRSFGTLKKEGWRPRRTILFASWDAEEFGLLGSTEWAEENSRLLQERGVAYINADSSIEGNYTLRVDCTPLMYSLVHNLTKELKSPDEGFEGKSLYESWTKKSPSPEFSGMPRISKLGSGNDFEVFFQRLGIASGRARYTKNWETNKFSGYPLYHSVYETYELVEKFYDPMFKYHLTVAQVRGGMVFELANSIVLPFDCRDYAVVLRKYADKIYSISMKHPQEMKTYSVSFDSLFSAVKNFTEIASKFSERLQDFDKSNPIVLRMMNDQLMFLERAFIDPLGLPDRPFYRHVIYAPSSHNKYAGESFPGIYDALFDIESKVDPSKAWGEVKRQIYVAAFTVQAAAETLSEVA

SMILES	Internalized fraction [1]	Membrane bound fraction [1]	Adrenals [2]	Blood [2]	Bone [2]	Bone marrow [2]	Duodenum [2]	Heart [2]	Kidney [2]	Liver [2]	Lung [2]	Muscle [2]	Pancreas [2]	Prostate [2]	Salivary glands [2]	Spleen [2]	Stomach [2]	Tumor+ LS174T-PSMA [2]	Tumor- LS174T [2]	Tumor/Blood ratio [2]	further results
C[Si](C)(CCC[N+](CCCS(=O)(=O)O)(CCCS(=O)(=O)O)CCCS(=O)(=O)O)O[Si-2]123(O[Si](C)(C)CCC[N+](CCCS(=O)(=O)O)(CCCS(=O)(=O)O)CCCS(=O)(=O)O)n4c5c6ccccc6c4N=C4c6cccc(OCCCOC(=O)NCCCCCC(=O)NCCCC[C@H](NC(=O)[C@H](CCC(=O)O)NC(=O)CN7CCN(CC(=O)O)CCN(CC(=O)O)CCN(CC(=O)O)CC7)C(=O)N[C@H](Cc7ccccc7)C(=O)N[C@@H](CCC(=O)O)C(=O)N[C@@H](CCC(=O)O)C(=O)NCCCCCC(=O)NCCCC[C@H](NC(=O)N[C@@H](CCC(=O)O)C(=O)O)C(=O)O)c6C(=[N+]41)N=c1c4ccccc4c(n12)=NC1=[N+]3C(=N5)c2ccccc21.[Na+].[Na+].[Na+].[Na+] [N122]	1.4 ± 0.20	0.6 ± 0.01	1.7 %ID/g	0.6 %ID/g	0.7 %ID/g	0.4 %ID/g	0.4 %ID/g	0.5 %ID/g	72.5 %ID/g	1 ± 0.2 %ID/g	1 ± 0.3 %ID/g	0.2 %ID/g	0.3 %ID/g	0.4 %ID/g	0.5 %ID/g	1.6 %ID/g	0.4 %ID/g	7.6 %ID/g	0.5 %ID/g	13.9	Tumor/Kidney ratio [2]: 0.2; Tumor/Liver ratio [2]: 8.1; Tumor/Muscle ratio [2]: 48.4; Tumor/Negative tumor ratio [2]: 17.8; Tumor/Prostate ratio [2]: 21.5; Tumor/Salivary gland ratio [2]: 18.6; Tumor/Spleen ratio [2]: 5.2; LogD [3]: -2.8 ± 0.06
C[Si](C)(CCC[N+](CCCS(=O)(=O)O)(CCCS(=O)(=O)O)CCCS(=O)(=O)O)O[Si-2]123(O[Si](C)(C)CCC[N+](CCCS(=O)(=O)O)(CCCS(=O)(=O)O)CCCS(=O)(=O)O)n4c5c6ccccc6c4N=C4c6cccc(OCCCOC(=O)NCCCCCC(=O)NCCCC[C@H](NC(=O)CCOCCOCCOCCOCCNC(=O)CCC(C(=O)O)N7CCN(CC(=O)O)CCN(CC(=O)O)CCN(CC(=O)O)CC7)C(=O)N[C@H](Cc7ccccc7)C(=O)N[C@@H](CCC(=O)O)C(=O)N[C@@H](CCC(=O)O)C(=O)NCCCCCC(=O)NCCCC[C@H](NC(=O)N[C@@H](CCC(=O)O)C(=O)O)C(=O)O)c6C(=[N+]41)N=c1c4ccccc4c(n12)=NC1=[N+]3C(=N5)c2ccccc21.[Na+].[Na+].[Na+].[Na+] (stereo partly shown) [NJ26]	1.8 ± 0.03	0.5 ± 0.05	1.5 %ID/g	0.3 %ID/g	0.2 %ID/g	0.4 %ID/g	0.3 %ID/g	0.3 %ID/g	59.9 %ID/g	0.6 %ID/g	0.5 %ID/g	0.2 %ID/g	0.2 %ID/g	0.5 %ID/g	0.4 %ID/g	0.9 %ID/g	0.3 %ID/g	11.5 %ID/g	0.4 %ID/g	49.1	Tumor/Kidney ratio [2]: 0.2; Tumor/Liver ratio [2]: 21.3; Tumor/Muscle ratio [2]: 116.4; Tumor/Negative tumor ratio [2]: 31.7; Tumor/Prostate ratio [2]: 29.4; Tumor/Salivary gland ratio [2]: 35; Tumor/Spleen ratio [2]: 14.2; LogD [3]: -2.4 ± 0.13
C[Si](C)(CCC[N+](CCCS(=O)(=O)O)(CCCS(=O)(=O)O)CCCS(=O)(=O)O)O[Si-2]123(O[Si](C)(C)CCC[N+](CCCS(=O)(=O)O)(CCCS(=O)(=O)O)CCCS(=O)(=O)O)n4c5c6ccccc6c4N=C4c6cccc(OCCCOC(=O)NCCCCCC(=O)NCCCC[C@H](NC(=O)CCC(C(=O)O)N7CCN(CC(=O)O)CCN(CC(=O)O)CCN(CC(=O)O)CC7)C(=O)N[C@@H](CCC(=O)O)C(=O)N[C@@H](CCC(=O)O)C(=O)NCCCCCC(=O)NCCCC[C@H](NC(=O)N[C@@H](CCC(=O)O)C(=O)O)C(=O)O)c6C(=[N+]41)N=c1c4ccccc4c(n12)=NC1=[N+]3C(=N5)c2ccccc21.[Na+].[Na+].[Na+].[Na+] (stereo partly shown) [N144]	2.5 ± 0.05	0.3 ± 0.03	1.3 %ID/g	0.2 %ID/g	0.5 %ID/g	0.3 %ID/g	0.3 %ID/g	0.3 %ID/g	70.3 %ID/g	0.6 %ID/g	0.4 %ID/g	0.2 %ID/g	0.2 %ID/g	0.5 %ID/g	0.4 %ID/g	1.1 %ID/g	0.3 %ID/g	11.7 %ID/g	0.5 %ID/g	71.9	Tumor/Kidney ratio [2]: 0.2; Tumor/Liver ratio [2]: 21.3; Tumor/Muscle ratio [2]: 110; Tumor/Negative tumor ratio [2]: 28.8; Tumor/Prostate ratio [2]: 32; Tumor/Salivary gland ratio [2]: 30.3; Tumor/Spleen ratio [2]: 12.3; LogD [3]: -2.4 ± 0.01
C[Si](C)(CCC[N+](CCCS(=O)(=O)O)(CCCS(=O)(=O)O)CCCS(=O)(=O)O)O[Si-2]123(O[Si](C)(C)CCC[N+](CCCS(=O)(=O)O)(CCCS(=O)(=O)O)CCCS(=O)(=O)O)n4c5c6ccccc6c4N=C4c6cccc(OCCCOC(=O)NCCCCCC(=O)NCCCC[C@H](NC(=O)CCOCCOCCOCCOCCNC(=O)CN7CCN(CC(=O)O)CCN(CC(=O)O)CCN(CC(=O)O)CC7)C(=O)N[C@H](Cc7ccccc7)C(=O)N[C@@H](CCC(=O)O)C(=O)N[C@@H](CCC(=O)O)C(=O)NCCCCCC(=O)NCCCC[C@H](NC(=O)N[C@@H](CCC(=O)O)C(=O)O)C(=O)O)c6C(=[N+]41)N=c1c4ccccc4c(n12)=NC1=[N+]3C(=N5)c2ccccc21.[Na+].[Na+].[Na+].[Na+] [NJ27]	1.1 ± 0.05	0.3 ± 0.04	0.7 %ID/g	0.2 %ID/g	0.2 %ID/g	0.4 %ID/g	0.2 %ID/g	0.3 %ID/g	51.4 %ID/g	0.6 %ID/g	0.3 %ID/g	0.1 %ID/g	0.2 %ID/g	0.3 %ID/g	0.3 %ID/g	0.6 %ID/g	0.2 %ID/g	9.1 ± 2 %ID/g	0.4 %ID/g	62.6	Tumor/Kidney ratio [2]: 0.2; Tumor/Liver ratio [2]: 15.9; Tumor/Muscle ratio [2]: 106.4; Tumor/Negative tumor ratio [2]: 27.1; Tumor/Prostate ratio [2]: 32.7; Tumor/Salivary gland ratio [2]: 33.2; Tumor/Spleen ratio [2]: 17.3; LogD [3]: -2.3 ± 0.11
